Laboratory results: paper PMC5318439, “The Novel Toll-Like Receptor 2 Agonist SUP3 Enhances Antigen Presentation and T Cell Activation by Dendritic Cells” (Frontiers in Immunology, 2017)
Where a SMILES comes first, the peptide text is derived from it. The star is where a group is joined. X1 = CCCCCCCCCCCCCCNC(=O)OC[C@H](C*)OC(=O)NCCCCCCCCCCCCCC; Palmitoyl = CCCCCCCCCCCCCCCC(=O)*

Experiments:
[1] = test system: OVA-expressing B16 melanoma cells (B16-OVA); test: B16-OVA melanoma lung metastasis tumor model after immunization; type: in vivo, mice; details: immunized OCS + 2 nmol per mouse for 30 days, B16-OVA 5 × 10^5 cells i.v., 16 days after challenge; vs OCS alone or OCS with Pam3
Source text: Tumor model was applied as previously described with some modifications ([42]). Briefly, mice were immunized by OCS alone, OCS with Pam3 (2 nmol per mouse), or OCS with SUP3 (2 nmol per mouse) for 30 days. Then mice were i.v. injected with OVA-expressing B16 melanoma cells (B16-OVA) (5 × 10^5 cells per mouse). After 16 days, the numbers of metastatic tumors in lung were counted.
Figure 2 SUP3 induced more vigorous cytotoxic T lymphocytes (CTLs) responses than Pam3CSK4 without excessive production of inflammatory cytokines in vivo. […] The percentages of pentamer positive cells (CD19^− CD3^+ CD8^+ SIINFEKL/H-2Kb-Pentamer^+) in spleens, i.e., the OVA-specific CD8^+ T cells, were determined by flow cytometry (A) and the statistic calculation is presented in (B). […] (C,D) Mice were immunized as in (A) for 30 days, then inoculated with OVA-expressing B16 melanoma cells (B16-OVA) (5 × 10^5 cells per mouse) by i.v. injection and analyzed for metastatic tumor formation in the lung 16 days after inoculation. […] (E) Mice were i.v. injected with SUP3 (2 nmol per mouse), Pam3 (2 nmol per mouse), or lipopolysaccharide (LPS) (1 µg per mouse) for 1 h, the serum was collected, and the levels of different cytokines were determined by ELISA. “n.d.” indicates “not detected.” *p < 0.05, **p < 0.01. […]

CD11b^+ cDCs = test: Antigen presentation by CD11b+ cDCs to OT-II CD4+ T cells in vitro; type: cell-based, mice; details: CD11b+ cDCs stimulated with 200 nM
Procedure: Antigen presentation assays were performed as previously described ([38]). Briefly, ovalbumin (OVA) (10 µg/mL; Sigma A7641) pulsed cDCs were stimulated with or without TLR agonists for 4 h. OT-I CD8^+ T cells and OT-II CD4^+ T cells were purified and then labeled by carboxyfluorescein diacetate succinimidyl ester (CFSE) (1 µM; Molecular Probes C34554). CD8^+ cDCs were cocultured with OT-I CD8^+ T cells for 60 h, whereas CD11b^+ cDCs were cocultured with OT-II CD4^+ T cells for 96 h, both in the presence of granulocyte-macrophage colony-stimulating factor (GM-CSF) (20 ng/mL; Peprotech 315-03). Proliferated OT-I or OT-II T cells were defined as diluted CFSE signal analyzed by flow cytometry. The numbers of T cells were counted by AccuCheck counting beads (Molecular Probes PCB100). […] Cells were washed twice with cold medium and analyzed by flow cytometry.
Figure 5 SUP3 enhanced antigen presentation ability of CD11b^+ conventional dendritic cells (cDCs) and production of antibodies against thymus-dependent (TD) antigens. […] Three days after immunization, division of OT-II CD4^+ T cells from inguinal lymph nodes were analyzed by flow cytometry (B). Absolute numbers of proliferated OT-II CD4^+ T cells were calculated in (C). […] Cells were then thoroughly washed and cocultured with CFSE-stained OT-II CD4^+ T cells for 4 days and analyzed by flow cytometry. […]

CCCCCCCCCCCCCCCC(=O)N[C@@H](CSC[C@@H](COC(=O)NCCCCCCCCCCCCCC)OC(=O)NCCCCCCCCCCCCCC)C(=O)NCC(=O)N[C@@H](CCCCN)C(=O)N[C@@H](CCCCN)C(=O)N[C@@H](CCCCN)C(=O)O [SUP3, (2S,5S,8S,14R,18R)-2,5,8-tris(4-aminobutyl)-4,7,10,13,21-pentaoxo-14-palmitamido-18-((tetradecylcarbamoyl)oxy)-20-oxa-16-thia-3,6,9,12,22-pentaazahexatriacontan-1-oic acid] (Palmitoyl-C(X1)GKKK-OH)
number of metastatic tumors in the lungs [1]: markedly reduced number of tumors in the lungs
OT-II CD4+ T cell proliferation in vitro (CD11b^+ cDCs): enhanced OT-II CD4^+ T cell proliferation
